{"source": "patent US9375463B2", "about": "“Compositions and methods for improving sleep using a nutraceutical formulation” (Creative Medical Health Inc., priority 2013, dated 2016)", "origin": "cited, not measured here", "key": {"subjects": {"test_system": "subjects", "conditions": "oral, 4 weeks, 9 subjects; by increasing sensitivity to light"}, "elderly subjects": {"test_system": "elderly subjects", "conditions": "500 mg daily for 8 weeks, 46 elderly subjects"}, "[1]": {"conditions": "3 mg"}, "[2]": {"test_system": "healthy males with normal sleep patterns", "conditions": "0.3 or 1.0 mg, orally"}, "[3]": {"test_system": "children most of whom were neurologically disabled", "conditions": "2-5 mg before bedtime for 7-10 days, fifteen subjects"}, "infants": {"test_system": "infants", "conditions": "daily for 12 months"}}, "data": [{"compound": "vitamin B12", "values": [{"measurement": "circadian rhythm", "setting": "subjects", "value": "advanced the circadian rhythm"}]}, {"compound": "[Mg+2]", "note": "[magnesium]", "values": [{"measurement": "levels of serum cortisol", "setting": "elderly subjects", "value": "reduced the levels of serum cortisol"}, {"measurement": "subjective measures of sleep", "setting": "elderly subjects", "value": "improved subjective measures of sleep"}]}, {"compound": "N-acetyl-5-hydroxytryptamine [melatonin]", "values": [{"measurement": "subjective sleep experiences (time to fall asleep, quality of sleep, awakenings)", "setting": "[1]", "value": "subjective improvements in sleep experiences"}, {"measurement": "falling asleep faster than individuals given placebo (sleep onset latency)", "setting": "[2]", "value": "approximately 40 minutes"}, {"measurement": "sleep and moods", "setting": "[3]", "value": "improve sleep and moods"}]}, {"compound": "zinc [zinc supplements]", "values": [{"measurement": "night sleep duration", "setting": "infants", "value": "increased night sleep duration"}, {"measurement": "night waking", "setting": "infants", "value": "less night waking"}]}]}
